Holding throughout (assay): NCI tumour cell line growth inhibition, 48 h
Experiment [1] deals with 786-0 renal.
Experiment [2] deals with A549 NSCLC.
Experiment [3] concerns ACHN renal.
In experiment [4] the test system is MALME-3M melanoma.
Experiment [5] concerns NCI-H522 lung.
For experiment [6], the system named is RXF 393 renal.
The subject of experiment [7] is SF-539 CNS.
In experiment [8] the test system is SK-MEL-2 melanoma.
Experiment [9] has as its system SK-OV-3 ovarian.
In experiment [10] the test system is UACC-62 melanoma.

The values below come from PubChem BioAssay (NCI).

Molecules are shown by their SMILES.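 Cells were grown in 96-well plates and exposed to each compound for 48 hours at five concentrations; endpoints were interpolated linearly between bracketing concentrations, or set to the highest concentration if not reached. GI50 = concentration required for 50% inhibition of growth. At the TGI there is no net growth.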 Where only a bound is given, the exact number is not on record here.

For the compound `CCC(=C(c1ccc(OCCCN(C)C)cc1)c1ccc(OCCCN(C)C)cc1)c1ccc(Cl)cc1`, the GI50 in experiment [1] was 0.35 µM; in experiment [2], 0.601 µM; in experiment [3], 0.469 µM; in experiment [4], 0.36 µM; in experiment [5], 0.48 µM; in [6], 0.977 µM. Further, the GI50 in experiment [7] is 0.301 µM; in [8] it was 2.63 µM; in [9] it was 2.81 µM; in experiment [10], 0.345 µM. Further, the TGI in experiment [1] came out at 0.759 µM; in experiment [2], 2.46 µM; in experiment [3] it was 1.36 µM; in experiment [4], 0.973 µM; in experiment [5] it was 1.69 µM; in [6], 3.4 µM. Also, the TGI in experiment [7] is 0.604 µM; in experiment [8], 5.37 µM; in experiment [9], 5.36 µM; in [10], 0.782 µM.

With `Cc1cc(Nc2nc(SCc3ccc(C(=O)Nc4ccc(F)cc4N)cc3)nn3cccc23)n[nH]1`, the GI50 in experiment [1] is 0.466 µM; in [2], 0.886 µM; in experiment [3], 1.24 µM; in experiment [4] it was 1.83 µM; in experiment [5] it was 0.0488 µM; in [6] it was 0.301 µM. Further, the GI50 in [7] is 0.282 µM; in experiment [8] it was 0.617 µM; in experiment [9], 0.339 µM; in [10], 0.347 µM. Also, the TGI in experiment [1] came to 22 µM; in experiment [2], 36.8 µM; in experiment [3] it was 13 µM; in experiment [4] it was 25.7 µM; in experiment [5], 0.565 µM; in [6], 13 µM. The TGI in experiment [7] stood at 17.4 µM; in experiment [8], 6.01 µM; in experiment [9], 4.61 µM; in experiment [10], 21.6 µM.

Take `CCCCCCCCCCN=C(c1ccc(N(C)C)cc1)c1ccc(N(C)C)cc1`: the GI50 was 3.61 µM in experiment [1]; 2.53 µM in [2]; 2.47 µM in experiment [3]; 16.6 µM in [4]; 0.352 µM in experiment [5]; 1.66 µM in experiment [6]. Also, the GI50 in experiment [7] was 0.832 µM; in experiment [8] it was 0.492 µM; in [9], 1.44 µM; in experiment [10] it was 0.508 µM. In addition, the TGI is 36.8 µM in experiment [1]; greater than 77.6 µM in [2]; greater than 73.9 µM in experiment [3]; 65.8 µM in [4]; 5.94 µM in [5]; 9.87 µM in experiment [6]. Further, the TGI in experiment [7] was 5.47 µM; in experiment [8], 33.2 µM; in experiment [9], 40.3 µM; in experiment [10], greater than 38.4 µM.

`C=CCC1[C@@H](C(C)(C)C(C(C)=O)C(=O)C(=O)OC)OC(C(C)(C)C)N1C(=O)OC` (stereo not given in full): the TGI in experiment [1], in experiment [2], in experiment [3], in experiment [4], in [5] and in experiment [6] was greater than 100 µM each time. Moreover, the TGI in [7], in [8], in [9] and in [10] was greater than 100 µM throughout.

With `NC(=O)/C=C/C(=O)O`, the TGI in [1], in [2], in experiment [3], in [4], in [5] and in experiment [6] was greater than 5000 µM each time. Besides, the TGI in experiment [7], in [8], in experiment [9] and in [10] was greater than 5000 µM each time.

Turning to `O=C(/C=C/c1ccccc1)CC(c1ccccc1)N1CCOCC1` (stereo not given), the GI50 is 1.95 µM in experiment [1]; 11.7 µM in experiment [2]; 2.03 µM in experiment [3]; 4.4 µM in experiment [4]; 4.1 µM in experiment [5]; 1.61 µM in experiment [6]. Moreover, the GI50 in experiment [7] was 2.24 µM; in experiment [8], 26.5 µM; in experiment [9], 14.4 µM; in experiment [10] it was 9.07 µM. The TGI in experiment [1] was found to be 3.61 µM; in experiment [2], 29 µM; in experiment [3] it was 4.4 µM; in experiment [4], 19.9 µM; in [5], 20 µM; in experiment [6] it was 3.03 µM. The TGI in experiment [7] stood at 5.98 µM; in [8], 66.9 µM; in experiment [9], 30.7 µM; in experiment [10], 21.8 µM.

`COc1c(Br)cc(Br)c(OC)c1-c1[nH]c(Br)c(Br)c1Br`: the TGI is 22.8 µM in experiment [1]; 19.2 µM in experiment [2]; 17.1 µM in experiment [3]; 16.6 µM in [4]; 7.25 µM in experiment [5]; 6.01 µM in experiment [6]. Also, the TGI in experiment [7] is 21.8 µM; in experiment [8], 13.7 µM; in experiment [9], 28.1 µM; in experiment [10], 22.4 µM.

For the compound `Cc1cn(C2OC(C)(CO)C(O)C2O)c(=O)[nH]c1=O` (stereo not given), the TGI in [1], in experiment [2], in experiment [3], in experiment [4], in [5] and in experiment [6] was greater than 100 µM each time. For the same compound, the TGI in experiment [7], in experiment [8], in experiment [9] and in experiment [10] was greater than 100 µM each time.

For the compound `Cc1nnc(N/N=C(/C(=O)C(C#N)c2ccccc2)C(C#N)c2ccccc2)n1N` (stereo not given), the TGI in experiment [1] stood at 25 µM; in experiment [2] it was 49.3 µM; in experiment [3], 65.5 µM; in experiment [4], 9.29 µM; in experiment [5], 56.1 µM; in experiment [6] it was 24.1 µM. In addition, the TGI is greater than 65.2 µM in experiment [7], 12.5 µM in experiment [8], greater than 100 µM in [9] and greater than 62.6 µM in experiment [10].

In the case of `COc1ccc(Nc2nc3ccccc3nc2-c2cccs2)cc1`, the TGI in experiment [1], in experiment [2], in experiment [3], in experiment [4], in experiment [5] and in [6] was greater than 100 µM each time. Also, the TGI in experiment [7], in experiment [8], in [9] and in experiment [10] was greater than 100 µM in each case.
